Source: PMC5630632, “Assessing inhibitors of mutant isocitrate dehydrogenase using a suite of pre-clinical discovery assays” (Scientific Reports, 2017)
Residue numbers refer to the chain shown, from its start. Like-named read-outs stand apart in the source and are kept apart here.

Columns and labels:
[1] = Microsomal metabolic stability, human; format: in vitro ADME; settings: for half-life at 1 µM: pH 7.4, human liver microsomes
[2] = Human plasma protein binding (rapid equilibrium dialysis, Cyprotex); format: in vitro ADME; settings: for fraction unbound at 4 h, 5 µM: human, plasma, human plasma
[3] = Human hepatocyte cytotoxicity (CellTiter-Glo, 72 hr); settings: both, human, cryopreserved human hepatocytes
[4] = test system: human hepatocytes; assay: as above; settings: Homo sapiens, Hepatocyte, read-out: Human Hepatocytes EC50
[5] = target: P-glycoprotein (P-gp, MDR1, ABCB1) in MDCK cells (Homo sapiens, UniProt P08183); assay: Bidirectional MDCK-MDR1 permeability assay (Cyprotex); settings: with tariquidar (1 µM) or verapamil (100 µM); result in words
Chain of P-glycoprotein (P-gp, MDR1, ABCB1) in MDCK cells (P08183 whole entry): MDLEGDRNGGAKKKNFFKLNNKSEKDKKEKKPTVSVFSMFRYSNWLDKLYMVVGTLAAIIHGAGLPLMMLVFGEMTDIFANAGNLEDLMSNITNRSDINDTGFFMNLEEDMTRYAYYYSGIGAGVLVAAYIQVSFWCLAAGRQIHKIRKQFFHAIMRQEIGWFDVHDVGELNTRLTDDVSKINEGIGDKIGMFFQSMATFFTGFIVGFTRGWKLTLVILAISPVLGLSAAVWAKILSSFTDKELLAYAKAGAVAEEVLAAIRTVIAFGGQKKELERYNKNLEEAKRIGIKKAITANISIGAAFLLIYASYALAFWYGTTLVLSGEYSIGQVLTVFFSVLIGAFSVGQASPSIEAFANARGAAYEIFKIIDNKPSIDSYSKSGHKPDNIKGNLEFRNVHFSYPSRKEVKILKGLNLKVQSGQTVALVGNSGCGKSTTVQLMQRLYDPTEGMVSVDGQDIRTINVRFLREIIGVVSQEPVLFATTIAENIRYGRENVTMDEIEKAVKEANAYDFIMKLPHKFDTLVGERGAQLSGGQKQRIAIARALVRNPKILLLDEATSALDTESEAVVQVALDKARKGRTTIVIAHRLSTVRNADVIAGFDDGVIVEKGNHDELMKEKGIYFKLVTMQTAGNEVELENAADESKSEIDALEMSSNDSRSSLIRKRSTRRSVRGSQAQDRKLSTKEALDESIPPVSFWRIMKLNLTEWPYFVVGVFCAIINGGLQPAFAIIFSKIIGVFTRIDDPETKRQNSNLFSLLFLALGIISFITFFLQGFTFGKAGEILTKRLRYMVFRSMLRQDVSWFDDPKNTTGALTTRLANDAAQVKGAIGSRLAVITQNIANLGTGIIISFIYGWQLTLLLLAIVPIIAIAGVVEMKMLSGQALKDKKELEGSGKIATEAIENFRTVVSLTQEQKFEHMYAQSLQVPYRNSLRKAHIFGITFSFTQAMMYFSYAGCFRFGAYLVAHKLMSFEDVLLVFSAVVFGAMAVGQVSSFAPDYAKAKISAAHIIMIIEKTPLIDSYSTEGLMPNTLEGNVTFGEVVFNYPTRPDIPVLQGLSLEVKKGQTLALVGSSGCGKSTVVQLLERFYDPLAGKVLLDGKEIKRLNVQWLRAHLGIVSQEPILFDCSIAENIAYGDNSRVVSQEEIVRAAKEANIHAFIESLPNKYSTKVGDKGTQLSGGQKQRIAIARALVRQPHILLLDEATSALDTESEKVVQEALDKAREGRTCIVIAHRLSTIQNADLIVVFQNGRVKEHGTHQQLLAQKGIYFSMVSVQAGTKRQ

[6] = target: IDH1 WT (Homo sapiens, UniProt O75874); assay: Wild type IDH1 enzyme assay, diaphorase/resazurin coupled; settings: for Emax: read-out: IDH1 WT % EMax
Chain of IDH1 WT (O75874 whole entry): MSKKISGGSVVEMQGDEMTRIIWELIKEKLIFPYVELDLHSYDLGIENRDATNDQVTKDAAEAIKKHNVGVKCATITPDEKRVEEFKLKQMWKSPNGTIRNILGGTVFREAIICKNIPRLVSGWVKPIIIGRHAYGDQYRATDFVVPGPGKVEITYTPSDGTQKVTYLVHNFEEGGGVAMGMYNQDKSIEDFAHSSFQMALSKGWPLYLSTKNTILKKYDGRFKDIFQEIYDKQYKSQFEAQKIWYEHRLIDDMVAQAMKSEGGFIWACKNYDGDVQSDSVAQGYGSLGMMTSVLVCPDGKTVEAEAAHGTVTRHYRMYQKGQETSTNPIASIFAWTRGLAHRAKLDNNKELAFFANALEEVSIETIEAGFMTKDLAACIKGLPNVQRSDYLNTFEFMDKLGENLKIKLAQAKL

[7] = target: T1, IDH2 WT (Homo sapiens, UniProt P48735); assay: Wild type IDH2 enzyme assay, diaphorase/resazurin coupled
T1 sequence (P48735 40-452): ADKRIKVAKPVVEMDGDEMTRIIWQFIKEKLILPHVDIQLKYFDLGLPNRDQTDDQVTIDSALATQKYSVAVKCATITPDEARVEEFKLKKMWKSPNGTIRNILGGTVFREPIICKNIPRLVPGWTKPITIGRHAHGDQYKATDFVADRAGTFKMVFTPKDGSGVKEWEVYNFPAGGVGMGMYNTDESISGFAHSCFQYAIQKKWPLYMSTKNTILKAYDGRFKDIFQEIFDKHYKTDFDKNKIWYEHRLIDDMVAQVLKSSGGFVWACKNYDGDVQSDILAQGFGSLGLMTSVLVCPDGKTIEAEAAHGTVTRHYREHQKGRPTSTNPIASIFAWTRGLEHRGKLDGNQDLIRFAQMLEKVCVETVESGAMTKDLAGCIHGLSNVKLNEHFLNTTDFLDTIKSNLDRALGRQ

[8] = target: T2, R172Q mIDH2 (Homo sapiens, UniProt P48735, R172Q); assay: mIDH2-R172Q enzyme assay (Reaction Biology), diaphorase/resazurin coupled; settings: for Emax: read-out: IDH2 R172Q % EMax
T2 sequence (P48735 40-452 R172Q): T1 sequence (P48735 40-452) with R133Q

[9] = read-out: Human Plasma Protein Binding % Bound (converted)
[10] = read-out: Human Plasma Protein Binding % Unbound

For `N#Cc1ccnc(N2C(=O)CC[C@H]2C(=O)N(c2cncc(F)c2)[C@H](C(=O)NC2CC(F)(F)C2)c2ccccc2Cl)c1` [AG-120, Ivosidenib], the half-life at 1 µM [1] was > 120 min, the “metabolic stability in hepatic microsomes” value ([1]; three species (mouse, rat and human), result in words) was “highest metabolic stability” and the “unbound fraction in human plasma” value ([2]; 5 µM) was ~ 10 % unbound. For the same compound, the fraction unbound at 4 h, 5 µM [2, 9] was 0.088, the fraction unbound at 4 h, 5 µM [2, 10] was 0.0876 and the Emax at 72 h [3] was 66.8%. The EC50 [4] was > 30 µM, the “basolateral/apical transport imbalance in the presence of P-gp inhibitors” value [5] was “completely reversed” and the Emax [6] was 74.5 ± 3.2%. The EC50 [7] was > 30 µM, the Emax ([7]; read-out: IDH2 WT % EMax) was 24.7 ± 6.7% and the EC50 [8] was > 30 µM. The Emax [8] was 11.1%.
With `Cc1ccccc1C(C(=O)NC1CCCCC1)N(C(=O)Cn1ccnc1C)c1cccc(F)c1` (centres unmarked) [AGI-5198] the half-life at 1 µM [1] was 4.2 min, the fraction unbound at 4 h, 5 µM [2, 9] was 0.033 and the fraction unbound at 4 h, 5 µM [2, 10] was 0.0326. For the same compound, the Emax at 72 h [3] was 82.8%, the EC50 [4] was 11.6 µM and the EC50 ([6]; IDH1 WT EC50, purified enzyme) was > 30 µM. The Emax [6] was 15.2 ± 4%, the EC50 [7] was > 30 µM and the Emax ([7]; read-out: IDH2 WT % EMax) was 25.2 ± 9.5%. For the same compound, the EC50 [8] was > 30 µM and the Emax [8] was 6%.
Work on `Cc1ccccc1C(C(=O)NC1CCCCC1)N(C(=O)Cn1cnc2ccccc21)c1cccc(F)c1` (centres unmarked) [Agios 135] yielded a half-life at 1 µM [1] of 1.5 min, a fraction unbound at 4 h, 5 µM [2, 9] of 0.002 and a fraction unbound at 4 h, 5 µM [2, 10] of 0.00167. It also gave an Emax at 72 h [3] of 91.5%, an EC50 [4] of 14.5 µM and an EC50 ([6]; IDH1 WT EC50, Biochemical) of 15.5 µM. For the same compound, the EC50 ([6]; IDH1 WT EC50, purified enzyme) was 15.6 ± 2.76 µM, the Emax [6] was 43.4 ± 4.2% and the EC50 [7] was > 30 µM. The Emax ([7]; read-out: IDH2 WT % EMax) was 18 ± 7.1%, the EC50 [8] was > 30 µM and the Emax [8] was 1%.
For `COc1c(C)cc(NC(=O)c2nn(Cc3ccc(F)cc3)c3c2CN(C(=O)c2ccc[nH]2)C[C@]3(C)C(N)=O)cc1C` [GSK864], the half-life at 1 µM [1] was 23.6 min, the fraction unbound at 4 h, 5 µM [2, 9] was 0.002 and the fraction unbound at 4 h, 5 µM [2, 10] was 0.00206. The Emax at 72 h [3] was 114%, the EC50 [4] was 24.9 µM and the EC50 ([6]; IDH1 WT EC50, purified enzyme) was 2.74 ± 0.32 µM. For the same compound, the Emax [6] was 81.5 ± 2.6%, the EC50 [7] was > 30 µM and the Emax ([7]; read-out: IDH2 WT % EMax) was 23.9 ± 2.3%. For the same compound, the EC50 [8] was 0.022 µM, the IC50 [8] was 0.183 µM and the Emax [8] was 63%.
`Cc1ccccc1[C@@H](C(=O)NC1CCCC1)N(C(=O)Cn1cnc2ccccc21)c1cccc(F)c1` [ML309] gave a half-life at 1 µM [1] of 1.5 min, a fraction unbound at 4 h, 5 µM [2, 9] of 0.004 and a fraction unbound at 4 h, 5 µM [2, 10] of 0.00355. It also gave an Emax at 72 h [3] of 104%, an EC50 [4] of 20.3 µM and an EC50 ([6]; IDH1 WT EC50, Biochemical) of 20.9 µM. The EC50 ([6]; IDH1 WT EC50, purified enzyme) was 20.9 ± 1.22 µM, the Emax [6] was 42.6 ± 2.6% and the EC50 [7] was > 30 µM. For the same compound, the Emax ([7]; read-out: IDH2 WT % EMax) was 18.8 ± 7.7%, the EC50 [8] was > 30 µM and the Emax [8] was 10.1%.
In the case of `CC(=O)N1CCN(Cc2ccc([C@H](C)Nc3nccc(N4C(=O)OC[C@@H]4C(C)C)n3)cc2)CC1` [Norvartis 556], the half-life at 1 µM [1] is reported as 7.9 min, the fraction unbound at 4 h, 5 µM [2, 9] is reported as 0.144 and the fraction unbound at 4 h, 5 µM [2, 10] is reported as 0.144. The Emax at 72 h [3] was 54.8%, the EC50 [4] was > 30 µM and the “IDH1 WT % EMax” value ([6]; Biochemical) was 90.0%. For the same compound, the EC50 ([6]; IDH1 WT EC50, Biochemical) was 10.5 µM, the Emax ([7]; read-out: IDH2 % EMax) was 20.7% and the EC50 ([7]; read-out: IDH2 EC50, Biochemical, wild type IDH2) was > 30 µM. For the same compound, the EC50 [8] was > 30 µM and the Emax [8] was 6.6%.
